From patent US8022102B2, “Unsaturated tetracyclic tetrahydrofuran derivatives” (Janssen Pharmaceutica, NV, priority 2004, dated 2011)
Structures can show the parent of a compound that is named as a salt. Where two headings read alike, the source gives them in different places.

Legend:
[1] = target: T1, human cloned 5-HT2A receptor (Homo sapiens, UniProt P28223); assay: In vitro binding affinity for 5-HT2A receptor (radioligand binding)
T1 construct: expressed in transfected cells; host or cells: L929 cells
Description: During the incubation, the radioligands bind to the receptor. When equilibrium of binding is reached, the receptor bound radioactivity is separated from the non-bound radioactivity, and the receptor bound activity is counted. The interaction of the test compounds with the receptors is assessed in competition binding experiments. Various concentrations of the test compound are added to the incubation mixture containing the tissue preparation and the radioligand. Binding of the radioligand will be inhibited by the test compound in proportion to its binding affinity and its concentration. The affinities of the compounds for the 5-HT2 receptors were measured by means of radioligand binding studies conducted with: (a) human cloned 5-HT2A receptor, expressed in L929 cells using [^125I]R91150 as radioligand and (b) human cloned 5-HT2C receptor, expressed in CHO cells using [^3H]mesulergine as radioligand.

[2] = target: T2, human cloned 5-HT2C receptor (Homo sapiens, UniProt P28335); assay: In vitro binding affinity for 5-HT2C receptor (radioligand binding)
T2 construct: expressed in transfected cells; host or cells: CHO cells
T2 sequence (P28335 33-458): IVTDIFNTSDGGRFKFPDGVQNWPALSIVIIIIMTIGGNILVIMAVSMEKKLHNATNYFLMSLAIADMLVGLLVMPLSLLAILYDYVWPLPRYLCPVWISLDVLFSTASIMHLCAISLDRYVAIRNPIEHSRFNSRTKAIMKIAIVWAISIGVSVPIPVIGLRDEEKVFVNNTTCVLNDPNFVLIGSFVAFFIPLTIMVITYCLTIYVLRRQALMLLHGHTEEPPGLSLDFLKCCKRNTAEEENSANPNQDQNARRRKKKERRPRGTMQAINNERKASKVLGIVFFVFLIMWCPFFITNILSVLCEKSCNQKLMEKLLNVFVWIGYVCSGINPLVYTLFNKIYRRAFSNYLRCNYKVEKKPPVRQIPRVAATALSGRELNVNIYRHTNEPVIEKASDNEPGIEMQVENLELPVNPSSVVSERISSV
Description: During the incubation, the radioligands bind to the receptor. When equilibrium of binding is reached, the receptor bound radioactivity is separated from the non-bound radioactivity, and the receptor bound activity is counted. The interaction of the test compounds with the receptors is assessed in competition binding experiments. Various concentrations of the test compound are added to the incubation mixture containing the tissue preparation and the radioligand. Binding of the radioligand will be inhibited by the test compound in proportion to its binding affinity and its concentration.

NET = target: T3, NET (Rattus norvegicus, UniProt Q9WTR4); assay: In vitro determination of NET reuptake inhibition ([3H]Nixosetine binding, rat brain cortex)
T3 construct: Cortex from rat brain was collected and homogenised; from tissue; host or cells: rat brain cortex
Description: Cortex from rat brain was collected and homogenised using an Ultra-Turrax T25 and a Dual homogeniser in ice-cold homogenising buffer containing Tris, NaCl and KCl (50 mM, 120 mM and 5 mM, respectively, pH 7.4) prior to dilution to an appropriate protein concentration optimised for specific and non-specific binding. […] Membrane-bound activity was detected by filtration through a Packard Filtermate harvester onto GF/B Unifilterplates, washed with ice-cold Tris-HCl buffer, containing NaCl and KCl (50 mM, 120 mM and 4 mM; pH 7.4; 6×0.5 ml). Filters were allowed to dry for 24 h before adding scintillation fluid. Scintillation fluid was allowed to saturate filters for 24 h before counting in a Topcount scintillation counter. Percentage specific bound and competition binding curves were calculated using S-Plus software (Insightful).

[3] = target: T4, human Dopamine D2L receptor (Homo sapiens, UniProt P14416); assay: In vitro binding affinity for human D2L receptor ([3H]Spiperone)
T4 construct: expressed in transfected cells; host or cells: CHO cells
Description: Frozen membranes of human Dopamine D2L receptor-transfected CHO cells were thawed, briefly homogenised using an Ultra-Turrax T25 homogeniser and diluted in Tris-HCl assay buffer containing NaCl, CaCl2, MgCl2, KCl (50, 120, 2, 1, and 5 mM respectively, adjusted to pH 7.7 with HCl) to an appropriate protein concentration optimised for specific and non-specific binding. Radioligand [^3H]Spiperone (NEN, specific activity ˜70 Ci/mmol) was diluted in assay buffer at a concentration of 2 nmol/L. Prepared radioligand (50 μl), along with 50 μl of either the 10% DMSO control, Butaclamol (10^−6 mol/l final concentration), or compound of interest, was then incubated (30 min, 37° C.) with 400 μl of the prepared membrane solution. Membrane-bound activity was filtered through a Packard Filtermate harvester onto GF/B Unifilterplates and washed with ice-cold Tris-HCl buffer (50 mM; pH 7.7; 6×0.5 ml). Filters were allowed to dry before adding scintillation fluid and counting in a Topcount scintillation counter. Percentage specific bound and competition binding curves were calculated using S-Plus software (Insightful).

[4] = human cloned 5-HT2A receptor, radioligand binding, read-out: h-5HT2A (converted)
[5] = human cloned 5-HT2C receptor, radioligand binding, read-out: h-5HT2C (converted)
[6] = rat brain cortex, [3H]Nixosetine, read-out: NET Reuptake Inhibition (converted)
[7] = human D2L receptor-transfected CHO cell membranes, [3H]Spiperone, read-out: h-D2L (converted)
[8] = h-5HT2A, human cloned 5-HT2A receptor, radioligand binding
[9] = h-5HT2C, human cloned 5-HT2C receptor, radioligand binding
[10] = NET Reuptake Inhibition, rat brain cortex, [3H]Nixosetine
[11] = h-D2L, human D2L receptor-transfected CHO cell membranes, [3H]Spiperone

T4 sequence (P14416 whole entry): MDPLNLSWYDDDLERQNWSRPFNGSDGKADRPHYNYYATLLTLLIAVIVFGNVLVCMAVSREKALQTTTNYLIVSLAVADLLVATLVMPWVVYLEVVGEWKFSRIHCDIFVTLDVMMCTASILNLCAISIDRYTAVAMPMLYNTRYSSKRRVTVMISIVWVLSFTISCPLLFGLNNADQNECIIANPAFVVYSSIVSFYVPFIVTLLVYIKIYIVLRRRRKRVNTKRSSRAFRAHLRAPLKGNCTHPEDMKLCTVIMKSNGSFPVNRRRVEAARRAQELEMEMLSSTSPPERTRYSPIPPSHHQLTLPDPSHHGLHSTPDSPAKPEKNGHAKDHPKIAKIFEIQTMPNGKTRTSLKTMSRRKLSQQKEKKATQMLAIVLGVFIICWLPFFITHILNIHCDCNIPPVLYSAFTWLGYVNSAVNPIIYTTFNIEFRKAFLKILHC
T3 sequence (Q9WTR4 1-597): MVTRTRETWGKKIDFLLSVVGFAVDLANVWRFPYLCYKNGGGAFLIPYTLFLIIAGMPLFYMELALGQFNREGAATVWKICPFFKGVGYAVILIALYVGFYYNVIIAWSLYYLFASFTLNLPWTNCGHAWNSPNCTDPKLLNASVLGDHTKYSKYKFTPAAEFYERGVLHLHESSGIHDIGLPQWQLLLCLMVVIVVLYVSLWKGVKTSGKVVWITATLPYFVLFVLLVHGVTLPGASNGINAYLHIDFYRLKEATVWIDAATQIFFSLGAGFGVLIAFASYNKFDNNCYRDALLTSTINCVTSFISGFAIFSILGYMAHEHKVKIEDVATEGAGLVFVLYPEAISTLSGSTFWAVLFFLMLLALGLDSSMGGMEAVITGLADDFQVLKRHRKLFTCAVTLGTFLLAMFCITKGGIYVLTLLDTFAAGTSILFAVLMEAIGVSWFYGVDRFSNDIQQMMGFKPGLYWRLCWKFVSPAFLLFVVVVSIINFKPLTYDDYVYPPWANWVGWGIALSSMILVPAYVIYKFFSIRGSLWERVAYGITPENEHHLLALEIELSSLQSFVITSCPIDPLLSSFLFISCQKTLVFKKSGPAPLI
T1 sequence (P28223 whole entry): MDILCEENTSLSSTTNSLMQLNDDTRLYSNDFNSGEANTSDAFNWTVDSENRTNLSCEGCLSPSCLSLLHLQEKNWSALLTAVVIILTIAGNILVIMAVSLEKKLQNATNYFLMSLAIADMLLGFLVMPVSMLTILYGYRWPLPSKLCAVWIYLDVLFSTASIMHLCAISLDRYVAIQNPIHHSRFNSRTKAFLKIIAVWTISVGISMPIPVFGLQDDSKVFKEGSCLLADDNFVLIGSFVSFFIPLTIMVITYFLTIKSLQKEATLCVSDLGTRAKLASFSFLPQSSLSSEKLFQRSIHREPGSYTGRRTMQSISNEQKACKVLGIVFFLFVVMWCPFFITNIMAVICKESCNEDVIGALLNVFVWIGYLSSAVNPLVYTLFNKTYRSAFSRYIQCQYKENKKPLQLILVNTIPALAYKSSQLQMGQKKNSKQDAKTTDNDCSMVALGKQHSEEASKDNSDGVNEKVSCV

Structure (SMILES) | IC50 [1, 4] [nM] | IC50 [2, 5] [nM] | IC50 (NET; [6]) [nM] | IC50 [3, 7] [nM] | further results
CCNCC1CC2=C(O1)c1cc(F)ccc1Sc1ccccc12 (stereo not shown) (as salt: oxalate) [Compound 18] | – | – | – | – | melting point: 240.7 °C
CN(C)CC1CC2=C(O1)c1ccccc1Cc1ccccc12 (stereo not shown) (as salt: oxalate) [Compound 22] | – | – | – | – | melting point: 172.8 °C
O=S(=O)(c1ccccc1)N1CCN(CC2CC3=C(O2)c2cc(F)ccc2Cc2ccccc23)CC1 (stereo not shown) [Compound 48] | 398 | 200 | > 10000 | 3160 | –
Cc1ccc(S(=O)(=O)N2CCN(CC3CC4=C(O3)c3cc(F)ccc3Oc3ccccc34)CC2)cc1 (stereo not shown) [Compound 50] | 200 | 316 | 1580 | 2000 | –
CC(C)OC(=O)N1CCN(CC2CC3=C(O2)c2cc(F)ccc2Cc2ccccc23)CC1 (stereo not shown) [Compound 63] | 251 | 501 | > 10000 | 3980 | –
O=C(Oc1ccccc1)N1CCN(CC2CC3=C(O2)c2cc(F)ccc2Cc2ccccc23)CC1 (stereo not shown) [Compound 65] | – | – | – | – | IC50 [1, 8]: 50.1 nM; IC50 [2, 9]: 126 nM; IC50 (NET; [10]): 3160 nM; IC50 [3, 11]: 1000 nM
O=C(Oc1ccccc1)N1CCN(CC2CC3=C(O2)c2cc(F)ccc2Oc2ccccc23)CC1 (stereo not shown) [Compound 66] | – | – | – | – | IC50 [1, 8]: 126 nM; IC50 [2, 9]: 316 nM; IC50 (NET; [10]): 1260 nM; IC50 [3, 11]: 794 nM
COc1ccc(OC(=O)N2CCN(CC3CC4=C(O3)c3cc(F)ccc3Cc3ccccc34)CC2)cc1 (stereo not shown) [Compound 67] | – | – | – | – | IC50 [1, 8]: 20 nM; IC50 [2, 9]: 50.1 nM; IC50 (NET; [10]): 3160 nM; IC50 [3, 11]: 398 nM
COc1ccc(OC(=O)N2CCN(CC3CC4=C(O3)c3cc(F)ccc3Oc3ccccc34)CC2)cc1 (stereo not shown) [Compound 68] | – | – | – | – | IC50 [1, 8]: 63.1 nM; IC50 [2, 9]: 251 nM; IC50 (NET; [10]): 1580 nM; IC50 [3, 11]: 794 nM
O=C(OCc1ccccc1)N1CCN(CC2CC3=C(O2)c2cc(F)ccc2Cc2ccccc23)CC1 (stereo not shown) [Compound 69] | 501 | 1000 | 7940 | 1260 | –
O=C(OCc1ccccc1)N1CCN(CC2CC3=C(O2)c2cc(F)ccc2Oc2ccccc23)CC1 (stereo not shown) [Compound 70] | 1000 | 631 | > 10000 | 251 | –
O=C(c1ccccc1)N1CCN(CC2CC3=C(O2)c2cc(F)ccc2Cc2ccccc23)CC1 (stereo not shown) [Compound 71] | 6.31 | 15.8 | 5010 | 126 | –
O=C(c1ccccc1)N1CCN(CC2CC3=C(O2)c2cc(F)ccc2Oc2ccccc23)CC1 (stereo not shown) [Compound 72] | 25.1 | 63.1 | 6310 | 398 | –
O=C(NCc1ccccc1)N1CCN(CC2CC3=C(O2)c2cc(F)ccc2Cc2ccccc23)CC1 (stereo not shown) [Compound 87] | 631 | 100 | 7940 | 794 | –
O=C(NCc1ccccc1)N1CCN(CC2CC3=C(O2)c2cc(F)ccc2Oc2ccccc23)CC1 (stereo not shown) [Compound 88] | 158 | 100 | 1580 | 1260 | –
CCCn1c2c(c3ccccc31)C1=C(CC(CNC)O1)c1ccccc1S2 (stereo not shown) [Compound 93] | 25.1 | 10 | 100 | 398 | –
CCCn1c2c(c3ccccc31)C1=C(CC(CN(C)C)O1)c1ccccc1S2 (stereo not shown) [Compound 94] | 126 | 39.8 | 1260 | 1000 | –
C=CCn1c2c(c3ccccc31)C1=C(CC(CNC)O1)c1ccccc1S2 (stereo not shown) [Compound 95] | 7.94 | 6.31 | 158 | 398 | –
CN(CC(=O)O)C[C@H]1CC2=C(O1)c1cc(F)ccc1Cc1ccccc12 [Compound 107] | 10 | 7.94 | – | 3980 | melting point: 194.7 °C
CN(CCC(=O)O)C[C@H]1CC2=C(O1)c1cc(F)ccc1Cc1ccccc12 [Compound 108] | 12.6 | 12.6 | 398 | 3980 | –
CN(C/C=C/C(=O)O)C[C@H]1CC2=C(O1)c1cc(F)ccc1Cc1ccccc12 [Compound 109] | 15.8 | 12.6 | 398 | 3160 | –
CN(C/C=C/c1ccccc1)C[C@H]1CC2=C(O1)c1cc(F)ccc1Cc1ccccc12 [Compound 110] | – | – | – | – | IC50 ([1]; h-5HT2A): 12.6 nM; IC50 ([2]; h-5HT2C): 5.01 nM; IC50 (NET; NET Reuptake Inhibition): 1000 nM; IC50 ([3]; h-D2L): 158 nM
CCOC(=O)CN(C)C[C@H]1CC2=C(O1)c1cc(F)ccc1Cc1ccccc12 [Compound 113] | 15.8 | 10 | 3980 | 1580 | –
CNC(=O)CN(C)C[C@H]1CC2=C(O1)c1cc(F)ccc1Cc1ccccc12 [Compound 116] | 10 | 7.94 | 2510 | 3160 | –
CN(CC(=O)NS(C)(=O)=O)C[C@H]1CC2=C(O1)c1cc(F)ccc1Cc1ccccc12 [Compound 120] | – | – | – | – | melting point: 88.5 °C
CCS(=O)(=O)N(C)CC1CC2=C(O1)c1cc(F)ccc1Cc1ccccc12 (stereo not shown) [Compound 127] | 200 | 10 | > 10000 | > 10000 | –
CN(C)CC1CC2=C(O1)c1ccsc1Cc1ccccc12 (stereo not shown) [Compound 131] | 39.8 | 7.94 | 794 | 200 | melting point: 174 to 176 °C
CNCC1CC2=C(O1)c1ccc(F)cc1Cc1ccccc12 (stereo not shown) [Compound 135] | 5.01 | 2.51 | 631 | 3160 | –
CNCC1CC2=C(O1)c1c(F)cccc1Cc1ccccc12 (stereo not shown) [Compound 136] | 25.1 | 2 | 100 | 1580 | –
CN(C)CCC1CC2=C(O1)c1cc(F)ccc1Cc1ccccc12 (stereo not shown) [Compound 137] | 12.6 | 3.16 | 158 | 1580 | –
